Data: patent US5314999A, “Derivatives of basic polyene macrolides and their preparation” (Laboratoires Mayoly-Spindler, priority 1989, dated 1994)
Converted amounts (≈) assume the structure as drawn. Read-outs that look alike come from different tables or passages of the source.

Assays:
[1] = Toxicity on nucleated cells, human thymocytes; format: cell-based; conditions: 1 hour 30, trypan blue, read-out: LD 50 (concentration leading to a mortality of 50%)
Description: (§1) B.2: Study of the toxicity on nucleated cells
(§2) The solutions of the amphotericine B derivatives are prepared similarly to those mentioned in paragraph B.1.
(§3) The cells are prepared by placing 20 ml of blood diluted to 1/2 with 0.9% NaCl into a tube together with 10 ml of Ficoll-hypaque, and the mixture is centrifuged at 2000 rpm for 30 minutes. The cell nuclei are recovered and washed twice with PBS buffer containing 5% of foetal calf serum.
(§4) The cells are prepared by suspending 1.14×10^6 cells/ml in RPMI 1640 containing 2.5% of foetal calf serum and by filling each well with 150 μl. 50 μl of each dilution of the derivatives are added and also one control (5% glucose solution).
(§5) The cells are then incubated in a steam cabinet at a CO2 concentration of 5% for 1 hour 30 at 37° C. or at ambient temperature.
(§6) To evaluate the toxicity of the derivatives, a cell count in the presence of trypan blue is made, and the LD 50 (concentration of the derivative leading to a mortality of 50%) is calculated with respect to the control (5% glucose solution) for each concentration of each derivative.

[2] = Toxicity on nucleated cells, DAUDI human lymphoma B; format: cell-based; conditions: human, daudi lymphoma b cells, 1 hour 30, trypan blue, read-out: LD 50 (concentration leading to a mortality of 50%)
[3] = test system: Saccharomyces cerevisiae; test: Growth inhibition in liquid medium (Sabouraud broth); format: cell-based; conditions: Saccharomyces cerevisiae, 18 h, Sabouraud broth, 28° C., 18 hours; read-out: IC 50 (growth-inhibiting concentration of 50%)
Description: (§7) A.1 : Study of the antibiotic efficiency of AmB derivatives in liquid medium against different yeasts
(§8) The antibiotic efficiency was tested by the growth inhibition method in liquid medium (Sabouraud broth) in the presence of different concentrations of the derivatives studied.
(§9) A yeast suspension was cultivated in a broth in such a manner that about 1×10^2 cell/ml were obtained.
(§10) The tubes containing the different concentrations of antifungal substance were inoculated with the same amount of yeast cells, and were then incubated at 28° C. for 18 hours with stirring. For each concentration of antifungal substance, two identical tubes were prepared.
(§11) The inhibition of fungal growth corresponding to the different concentrations was evaluated for each molecule by spectrophotometry at 620 nm and expressed in percent with respect to a reference solution without antifungal substance.

[4] = test system: Cryptoccocus neoformans; test: as above; format: cell-based; conditions: 18 h, Sabouraud broth, 28° C., 18 hours; read-out: IC 50 (growth-inhibiting concentration of 50%)
Description: as §7, §8, §9, §10, §11

[5] = test system: Pytirosporum orbiculare; test: as above; format: cell-based; conditions: Sabouraud broth, 28° C., 18 hours; read-out: IC 50 (growth-inhibiting concentration of 50%)
Description: as §7, §8, §9, §10, §11

[6] = test system: Candida albicans B 2630; test: as above; format: cell-based; conditions: B2630, Sabouraud broth, 28° C., 18 hours, read-out: IC 50 (growth-inhibiting concentration of 50%)
Description: as §7, §8, §9, §10, §11

[7] = test system: Candida albicans; test: as above; format: cell-based; conditions: Sabouraud broth, 28° C., 18 hours, read-out: IC 50 (growth-inhibiting concentration of 50%)
Description: as §7, §8, §9, §10, §11

[8] = test system: red corpuscles; test: Toxicity on red corpuscles (lysis), mice; format: cell-based; conditions: 37° C., 1 hour 30, 90 min, 90 min, read-out: LD 50 (dose which leads to lysis in 50% of the erythrocytes)
Description: (§12) B.1: Study of the toxicity on red corpuscles
(§13) All the solutions of the AmB derivatives according to the invention were prepared immediately before use by diluting 4 mg of substance in 100 μl of 5% glucose solution, and then, after 15 minutes protected from light, 100 μl of sterile distilled water are added, and the mixture is made up to stock solutions of 4 mg/ml with a 5% glucose solution. For comparative study of the effects of AmB, 4 mg of FUNGIZONE are diluted with 1 ml of 5% glucose.
(§14) The cells are prepared by placing 1 ml of a peripheral blood sample into a tube together with Ficollhypaque to remove the lymphocytes, and then centrifuging the mixture at 2000 rpm for 20 minutes. The remaining red corpuscles are recovered, washed once with 0.9% NaCl and then twice with 150 Mm KCl, 0.5 Mm tris-HCl, pH 7.4.
(§15) A 1.25% suspension is then prepared with 150 mM KCl solution, 0.5 mM tris-HCl, pH 7.4, and 150 μl thereof are distributed in wells along with 50 μl of each of the dilutions of the derivatives, plus a control well (5% glucose solution).
(§16) The cells are then incubated at 37° C. in a steam cabinet for 1 hour 30.
(§17) To evaluate the cell lysis, haemoglobin is essayed by removing 100 μl of the supernatant in each well and diluting the sample with 1 ml of distilled water.
(§18) The haemoglobin concentration is calculated by measuring the optical density at 540 nm and taking into account the absorption of the derivatives of amphotericine B.
(§19) LD 50 is the dose which leads to lysis in 50% of the erythrocytes (a control of 100% lysis is obtained with distilled water, and reference lysis of 0% is obtained with the 5% glucose solution).

[9] = test system: PBL; test: Toxicity on nucleated cells, human PBL; format: cell-based; conditions: human PBL, 1 hour 30, trypan blue; 90 min; read-out: LD 50 (concentration leading to a mortality of 50%)
Description: as §1, §2, §3, §4, §5, §6

[10] = test system: red corpuscles; test: Toxicity on red corpuscles (lysis), human; format: cell-based; conditions: 37° C., 1 hour 30, 90 min, 90 min, read-out: LD 50 (dose which leads to lysis in 50% of the erythrocytes)
Description: as §12, §13, §14, §15, §16, §17, §18, §19

[11] = Toxicity on nucleated cells, mice T lymph gland cells; format: cell-based; conditions: mouse, 1 hour 30, trypan blue, read-out: LD 50 (concentration leading to a mortality of 50%)
Description: as §1, §2, §3, §4, §5, §6

[12] = test system: Aspergillus fumigatus; test: Diffusion method in agar-agar medium (Sabouraud agar-agar); format: cell-based; conditions: Sabouraud agar-agar, disc diameter 1 cm, 0.1 ml
Description: (§20) A.2 : Study of the antibiotic efficiency of amphotericine B derivatives in agar-agar medium against Aspergillus
(§21) The antibiotic activity was tested by the diffusion method in agar-agar medium (Sabouraud agar-agar).
(§22) The efficiency of each molecule was determined by the size of the growth-inhibiting zone around a WHATMAN 3M paper disc impregnated with the antibiotic substance of a given concentration.
(§23) A suspension of Aspergillus spores in a broth was prepared, 0.2 ml of this suspension was used to inoculate at its surface an agar-agar medium which was solidified in such a manner that a homogeneous growth layer was obtained. After spreading, the WHATMAN 3M paper discs (diameter: 1 cm) were placed on the surface of the agar-agar, and then impregnated with 0.1 ml of the antibiotic substance at different concentrations.

[13] = test system: Aspergillus flavus; test: as above; format: cell-based; conditions: Sabouraud agar-agar, disc diameter 1 cm, 0.1 ml
Description: as §20, §21, §22, §23

[14] = Toxicity on nucleated cells, mice thymocytes; format: cell-based; conditions: mouse, thymocytes, 1 hour 30, trypan blue, read-out: LD 50 (concentration leading to a mortality of 50%)
[15] = test system: X 63 (mice lymphoma B); test: Toxicity on nucleated cells, X 63 mice lymphoma B; format: cell-based; conditions: 1 hour 30, trypan blue, 90 min, read-out: LD 50 (concentration leading to a mortality of 50%)
[16] = Toxicity on nucleated cells, human bone marrow; format: cell-based; conditions: 1 hour 30, trypan blue, read-out: LD 50 (concentration leading to a mortality of 50%)
Description: as §1, §2, §3, §4, §5, §6

[17] = Toxicity on nucleated cells, mice B lymph gland cells; format: cell-based; conditions: mouse, 1 hour 30, trypan blue, read-out: LD 50 (concentration leading to a mortality of 50%)
Description: as §1, §2, §3, §4, §5, §6

[18] = Solubility of the AmB derivatives; format: physicochemical; conditions: 5% glucose solution, ambient temperature, up to saturation; read-out: solubility (soluble up to a concentration of)
Description: C.2. Solubility of the AmB derivatives according to the present invention
AmB or the derivatives obtained are dissolved at ambient temperature in a 5% glucose solution up to saturation.

[19] = test system: DAUDI (human lymphoma B); test: Toxicity on nucleated cells, DAUDI human lymphoma B; format: cell-based; conditions: 1 hour 30, trypan blue, 90 min, read-out: LD 50 (concentration leading to a mortality of 50%)
[20] = Toxicity on nucleated cells, X 63 mice lymphoma B; format: cell-based; conditions: mouse, x 63 lymphoma cells, 1 hour 30, trypan blue, read-out: LD 50 (concentration leading to a mortality of 50%)

Structure (SMILES): C[C@@H]1[C@H](O)[C@@H](C)/C=C/C=C/C=C/C=C/C=C/C=C/C=C/[C@H](O[C@@H]2O[C@H](C)[C@@H](O)[C@H](NCC(=O)[C@@H](O)[C@@H]3OC(c4ccccc4)OC[C@H]3O)[C@@H]2O)C[C@@H]2O[C@](O)(C[C@@H](O)C[C@@H](O)[C@H](O)CC[C@@H](O)C[C@@H](O)CC(=O)O[C@H]1C)C[C@H](O)[C@H]2C(=O)O (stereo partly drawn) [AmB 20 F, 1-deoxy-1-amino-4,6-O-benzylidene-D-fructosyl-AmB]
- CC50 at 1.5 h [1]: > 300 µM
- CC50 at 1.5 h [2]: > 1 mM
- IC50 [3]: 1100 nM
- IC50 [4]: 45 nM
- IC50 [5]: 100 nM
- IC50 [6]: 150 nM
- IC50 ([7]; Candida albicans, 18 h): 85 nM
- HC50 [8]: 120 µM
- CC50 [9]: > 1000 µM
- HC50 [10]: 200 µM
- CC50 at 1.5 h [11]: 100 µM
- IC (1 cm inhibition zone) ([12]; Aspergillus fumigatus, read-out: concentration giving a growth inhibition of 1 cm around a disc in solid medium): 200 µM
- concentration giving a growth inhibition of 1 cm around a disc in solid medium [13]: 1.5 × 10^-4 molarity
- CC50 at 1.5 h [14]: 8 µM
- CC50 [15]: > 1 mM
- CC50 at 1.5 h [16]: 1 mM
- CC50 at 1.5 h [17]: 100 µM

Structure (SMILES): C[C@@H]1[C@H](O)[C@@H](C)/C=C/C=C/C=C/C=C/C=C/C=C/C=C/[C@H](O[C@@H]2O[C@H](C)[C@@H](O)[C@H](NCC(=O)[C@@H](O)[C@@H]3OC(c4ccccc4)OC[C@H]3O)[C@@H]2O)C[C@@H]2O[C@](O)(C[C@@H](O)C[C@@H](O)[C@H](O)CC[C@@H](O)C[C@@H](O)CC(=O)O[C@H]1C)C[C@H](O)[C@H]2C(=O)O (stereo partly drawn) [AmB 20, 1-deoxy-1-amino-4,6-O-benzylidene-D-fructosyl-AmB]
- solubility [18]: 40 mg/mL (≈ 34.1 mM)

Structure (SMILES): CC(=O)NC[C@H]1OC(O)(CN[C@@H]2[C@H](O)[C@H](O[C@H]3/C=C/C=C/C=C/C=C/C=C/C=C/C=C/[C@H](C)[C@@H](O)[C@@H](C)[C@H](C)OC(=O)C[C@H](O)C[C@H](O)CC[C@@H](O)[C@H](O)C[C@H](O)C[C@]4(O)C[C@H](O)[C@@H](C(=O)O)[C@H](C3)O4)O[C@H](C)[C@H]2O)[C@@H](O)[C@@H]1O (stereo partly drawn) [AmB 23 F, 6-deoxy-6-N-acetyl-1-deoxy-1-aminofructosyl-AmB]
- CC50 [19]: > 1 mM
- IC50 [3]: 1600 nM
- IC50 [4]: 150 nM
- IC50 [5]: 76 nM
- IC50 [7]: 400 nM
- HC50 [8]: 12 µM
- CC50 [9]: 80 µM
- HC50 [10]: 50 µM
- concentration giving a growth inhibition of 1 cm around a disc in solid medium [12]: 2 × 10^-4 molarity
- IC (1 cm inhibition zone) ([13]; Aspergillus flavus, read-out: concentration giving a growth inhibition of 1 cm around a disc in solid medium): 600 µM
- CC50 at 1.5 h [14]: 3 µM
- CC50 at 1.5 h [20]: > 1 mM
